The source of these data is patent publication US11446292B2, “Compounds and conjugates thereof” (MedImmune Limited, priority 2019, dated 2022).

The experiment has as its system NCI-N87 cells. Nature of the experiment: In vitro assay of warhead, cell viability by MTS. Format: cell-based. The note with it: Homo sapiens, 168 h, 7 days incubation, mean of three independent replicates. As to the method:
Solid test material was dissolved in DMSO to a 2 mM stock solution, from which eight serial dilutions were made at a 1:10 ratio in DMSO and stored at −20° C. until use.
Adherent NCI-N87 cells were washed with D-PBS and detached with Trypsin-EDTA, cell density and viability were then determined in duplicate by Trypan blue exclusion assay using an automated cell counter (LUNA-II™). Cell suspension was diluted to 1×10^5 cells/ml in growth media (RPMI 1640 with Glutamax+10% (v/v) HyClone™ Fetal Bovine Serum) and vortexed before dispensing 2 mL per well into sterile 3 mL polypropylene plates. Warhead dilutions were then dispensed into the appropriate wells at 10 μl/well and mixed by repeat pipetting. […] At the end of the incubation period time (7 days), cell viability was measured by CellTiter 96 ™ aqueous One (MTS) assay, which was dispensed at 20 μl/well and incubated for 4 hours at 37° C., 5% CO2. Plates were then read on an EnVision™ Multi-label Plate Reader (Perkin Elmer) using absorbance at 490 nm.
Cell survival percentage was calculated from the mean absorbance of the 2 replicate wells for each sample, compared to the mean absorbance in the two control wells treated with DMSO only (100%). The IC50 was determined by fitting each data set to sigmoidal dose-response curves with a variable slope using the non-linear curve fit algorithm on the GraphPad Prism software (San Diego, Calif.). […]

In general, IC50 refers to the concentration that inhibits the measured activity by half.

Turning to `CC[C@@]1(O)C(=O)OCc2c1cc1n(c2=O)Cc2c-1nc1ccc(N)c3c1c2CCC3` [Compound I11, (S)-4-amino-9-ethyl-9-hydroxy-1,2,3,9,12,15-hexahydro-10H,13H-benzo[de]pyrano[3′,4′:6,7]indolizino[1,2-b]quinoline-10,13-dione], the IC50 came to 0.385 nM.
